Assay results reported in patent publication US9511048B2, “Use of flavone compound for prevention or treatment of obesity” (INDUSTRY-ACADEMIC COOPERATION FOUNDATION, YONSEI UNIVERSITY, priority 2012, dated 2016).

Tests used:
[1] = system: C57BL/6 mice with high-fat diet-induced obesity; assay: Weight-reducing effect in the mouse model of high fat diet-induced obesity; assay type: in vivo; settings: 20 mg/kg oral once a day; for food intake versus control groups: eight weeks; for rate of weight gain at the end of eight weeks compared to the control group: p<0.05
Protocol: Three week-old C57BL/6 mice were acclimated for one week and fed with high-fat diet (product #D12492, Research Diet Inc., New Brunswick, N.J., USA) for six weeks to induce obesity. Mice were randomly divided into experimental and control groups, in total of four groups, ten per each group. The experimental groups were orally administered with either 5,7-dimethoxyflavone or 5,7,4′-trimethoxyflavone suspended in 0.25% carboxymethyl cellulose at a dose of 20 mg/kg body weight, once a day at regular hours for eight weeks. For comparison, the control groups were orally administered with 0.25% carboxymethyl cellulose only in the same manner as the experimental groups. Food intake and body weight of each sample mouse were measured every week.

3T3-L1 preadipocytes = assay: Inhibition of lipid production, Oil Red O staining of differentiated adipocytes; assay type: cell-based
Protocol: 3T3-L1 preadipocytes (American Type Culture Collection (ATCC), Manassas, Va., USA) were cultured in DMEM (Dulbecco's Modified Eagle's Medium) supplemented with 10% bovine calf serum, and seeded into 12-well microtiter plates with a density of 10^5 cells/well. Adipocyte differentiation was induced when the preadipocytes reached approximately 100% confluence after growing two more days at 90% confluence. For the experimental groups, induction of adipocyte differentiation was performed in the presence of 5,7-dimethoxyflavone at the concentration of 5, 10, or 20 μM dissolved in the culture medium containing dexamethasone, IBMX (3-isobutyl-1-methylxanthine), and insulin. Afterwards, cells of the experimental groups were maintained continuously in the presence of the same concentrations of 5,7-dimethoxyflavone dissolved in the culture medium containing 10% FBS and 0.1% insulin, replacing the medium every two days. For comparison, control cells were treated the same way as the cells of the experimental groups except for the 5,7-dimethoxyflavone treatment. On day 10 since induction of differentiation, fully differentiated adipocytes were stained with Oil Red O (Sigma, St. Louis, Mo., USA). Stained lipid droplets in the adipocytes were extracted with 100% isopropanol and subjected to the measurement of the absorbance at 500 nm using a spectrophotometer. […]

[2] = system: SREBP1c, C/EBP, FAS and ACC expression in 3T3-L1 adipocytes; assay: Western blot of lipogenic transcription factors and enzymes; assay type: cell-based; settings: proteins harvested after eight days
Protocol: (§1) It was examined whether the expression of proteins involved in lipid production was reduced by 5,7-dimethoxyflavone treatments in 3T3-L1 adipocytes. 3T3-L1 adipocytes were induced to differentiate in the same manner as described in Example 1-1, and were lysed with a RIPA buffered solution containing a proteinase inhibitor cocktail. Protein samples were boiled for 5 minutes, loaded ([…]) on 10% SDS-PAGE gels and separated by electrophoresis. Separated proteins were transferred to the nitrocellulose membranes and subjected to western blot experiments. Protein-transferred membranes were reacted with primary antibodies, rinsed with TBST three times, 10 minutes each. The dilution ratio of primary antibodies was 1:1000. Membranes reacted with primary antibodies were followed with secondary antibody incubation (anti-rabbit horseradish) for 2 hours at room temperature. The dilution ratio of secondary antibodies was 1:5000. Protein bands were visualized with ECL western blotting detection reagents (Amersham, Tokyo, Japan). Proteins were harvested after eight days and subjected to western blot experiments.

[3] = system: UCP2 and UCP3 expression in 3T3-L1 adipocytes; assay: Western blot of thermogenic proteins; assay type: cell-based
Protocol: as §1
Proteins were harvested from the 3T3-L1 adipocytes differentiated as described in Example 1-1, and subjected to western blot experiments in the same manner as in Example 1-2.

SMILES	food intake versus control groups [1]	rate of weight gain at the end of eight weeks compared to the control group [1]	reduction in lipid production compared to the control (3T3-L1 preadipocytes; 20 μM, p<0.01) [%]	expression of SREBP1c, C/EBP, FAS and ACC [2]	expression of UCP2 and UCP3 [3]	lipid production in 3T3-L1 adipocytes (3T3-L1 preadipocytes; 5, 10 or 20 μM, day 10 after induction of differentiation, Oil Red O, absorbance 500 nm)
COc1ccc(-c2cc(=O)c3c(OC)cc(OC)cc3o2)cc1 [5,7,4′-trimethoxyflavone]	no significant difference	significantly lower	28			
COc1cc(OC)c2c(=O)cc(-c3ccccc3)oc2c1 [5,7-dimethoxyflavone]	no significant difference	significantly lower		reduction in the expression	upregulated the expression of UCP2 and UCP3	suppresses lipid production in 3T3-L1 adipocytes effectively
